# Data published in US10456467B2, “Nanoparticle delivery system for targeted anti-obesity treatment” (UNIVERSITY OF WYOMING, priority 2014, dated 2019).
# Legend:
# [1] = CAP release (dissolution) in pH 7.4 phosphate buffer, Vankel dissolution apparatus; format: physicochemical; conditions: 37° C.
# From the text: The cumulative release (%) was plotted against time. Cumulative % Release=C1V1×CF/100×C2
# C1=Concentration of capsaicin in the final solution (g/ml);
# C2=Drug content (mgs) used for dissolution study;
# CF=Correction Factor, which is an accommodation for the change in volume due to sampling; and
# V1=Volume of dissolution medium (ml)
# [2] = biological target: T1, TRPV1 channel protein (CAP receptor) (Homo sapiens, UniProt Q8NER1); assay: Fura-2 Ca2+ influx imaging in HEK293 cells expressing TRPV1; format: cell-based; conditions: 1 μM CAP or equivalent, 22 degrees Celsius, FIG. 4
# T1 construct: expressed in transfected cells; host or cells: HEK293
# Experimental: FIG. 4 is a graph 400 of the time to peak rise of Ca^2+ for PLGA coated CMN, pure CAP and MNPs containing no CAP, according to embodiments described herein. HEK293 cells expressing TRPV1 channel protein (CAP receptor) grown on coverslips were loaded with Fura-2 AM (2 μM) for 40 minutes at room temperature. Cells were washed and then viewed with a Leica DMI3000 B inverted microscope coupled to a Polychrome V digital imaging system with Imago CCD camera. Cells were continuously superfused (22 degrees Celsius) with 2 mM Ca^2+ containing normal extracellular solution (NES). The Ca^2+ influx due to the addition of pure capsaicin (1 μM), CMN or PCMN (equivalent of 1 μM CAP), was observed and measured as a function of fluorescence.
# [3] = cited from earlier work
# T1 sequence (Q8NER1 whole entry): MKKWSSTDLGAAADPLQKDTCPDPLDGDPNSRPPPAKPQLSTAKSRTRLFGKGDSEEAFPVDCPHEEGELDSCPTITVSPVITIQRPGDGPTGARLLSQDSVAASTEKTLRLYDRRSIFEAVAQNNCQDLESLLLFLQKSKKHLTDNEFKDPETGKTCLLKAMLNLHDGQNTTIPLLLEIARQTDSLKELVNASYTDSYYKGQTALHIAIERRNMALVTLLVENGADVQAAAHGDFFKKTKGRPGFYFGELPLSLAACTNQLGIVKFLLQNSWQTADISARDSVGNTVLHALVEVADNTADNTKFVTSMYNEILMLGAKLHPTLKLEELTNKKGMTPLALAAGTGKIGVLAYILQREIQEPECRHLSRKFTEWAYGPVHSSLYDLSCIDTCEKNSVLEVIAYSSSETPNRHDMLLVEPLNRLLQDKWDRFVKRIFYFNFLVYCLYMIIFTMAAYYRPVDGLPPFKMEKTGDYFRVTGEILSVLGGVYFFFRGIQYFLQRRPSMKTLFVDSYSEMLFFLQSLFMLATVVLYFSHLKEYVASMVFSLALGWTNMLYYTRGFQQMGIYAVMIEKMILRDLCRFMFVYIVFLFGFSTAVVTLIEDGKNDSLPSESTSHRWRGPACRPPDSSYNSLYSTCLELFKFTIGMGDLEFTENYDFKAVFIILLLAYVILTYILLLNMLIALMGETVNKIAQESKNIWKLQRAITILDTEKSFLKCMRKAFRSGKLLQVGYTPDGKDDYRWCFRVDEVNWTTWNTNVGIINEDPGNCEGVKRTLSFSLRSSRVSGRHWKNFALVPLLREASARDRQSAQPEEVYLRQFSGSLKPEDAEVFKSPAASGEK
structure (smiles),measurement,setting,value
"COc1cc(CNC(=O)CCCC/C=C/C(C)C)ccc1O [pure CAP, capsaicin]",time of peak CAP concentration (cumulative release),"[1]; FIG. 3, 15 to 3000 minutes",around 500 minutes
same,course of CAP concentration after the peak,"[1]; FIG. 3, up to 3000 minutes",steadily decrease
same,time at which rise in Ca2+ concentration begins,[2],approximately 175 seconds
same,time of peak rise in Ca2+ concentration,[2],about 300 seconds
same,effect on high fat diet-induced weight gain in the absence of the TRPV1 protein in adipose tissue,[3]; absence of TRPV1 protein in adipose tissue,does not inhibit high fat diet-induced weight gain
same,effect on high fat diet-induced weight gain,[3]; mouse model systems,inhibit high fat diet-induced weight gain
